Consider 10 molecules from patent publication US6528618B1, “Anti-inflammatory peptides derived from C-reactive protein” (Yeda Research and Development Co. Ltd., priority 1997, dated 2003).

For assay [1], the target named is T1, human leukocyte elastase (hLE) (Homo sapiens, UniProt P08246).
T1 construct: Neutrophils (1.4 billion) were isolated from whole blood obtained from a single healthy laboratory donor; from tissue; host or cells: neutrophils from whole blood of a single healthy donor
T1 sequence (P08246 30-247 limits assumed): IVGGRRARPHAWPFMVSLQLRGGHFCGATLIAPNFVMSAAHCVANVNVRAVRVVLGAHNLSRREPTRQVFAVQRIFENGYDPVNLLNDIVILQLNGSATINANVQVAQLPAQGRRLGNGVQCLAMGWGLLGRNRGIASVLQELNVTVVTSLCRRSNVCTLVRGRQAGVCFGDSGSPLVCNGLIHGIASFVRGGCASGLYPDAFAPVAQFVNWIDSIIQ
The assay is described as follows: In vitro inhibition of hLE (cleavage of MeOSuc-AAPV-NA). Format: biochemical. On the procedure:
(§1) The enzymatic activity was assayed with MeOSuc-AAPV-NA for hLE determination and Suc-AAPF-NA for hCG determination (both in 100 mM Hepes buffer, pH 7.4, containing 0.05% of the […] detergent Brij-35). The activities of the individual enzymatic fractions were 100% free from cross-contamination. […] The fractions containing hLE and hCG were dialyzed each against 0.1% pyridinium acetate, pH 5.3, divided into 20 aliquots, lyophilized, and stored at −20 ° C. until use.
(v) Inhibition experiments with hLE: Peptides were dissolved in 100 mM Hepes buffer pH 7.4 containing 0.1% Brij-35 with 10%. DMSO to yield 300 μM solutions, which were used to make further dilutions with the same buffer, and 80 μL aliquots were added in duplicates to 96-well plates. The substrate, 600 μM MeOSuc-AAPV-NA in the same buffer with 5% DMSO, was added to each well in addition to the blank wells, and the plate was placed in the plate reader equilibrated to 37 C (Dynateck MR-6000). Lyophilized aliquots of hLE were dissolved in 1600 μL of 100 mM Hepes buffer without DMSO, and 80 μL of the enzyme solution was added to the peptides and substrate to initiate the reaction. […] The final volume was 240 μL containing: 5% DMSO, 1-100 μM of peptide, 200 μM substrate, and 0.75 μg (˜25 picomol) enzyme.
(viii) Calculations: For hLE, V is determined by fitting a linear equation to the first 6 time-points (10 min) of the kinetics data using the least squares method. […] Several inhibitor concentration in duplicates and two control wells were used to fit a linear equation to graphs of Vo/Vi−1 vs. [I] for each inhibitor using the least squares method (8 data points for each inhibitor). From calculating the error in the slope of the equation, the relative error for Ki was deduced:
Ki={slope*(1+[S]/Km)}^−1because Ki=[I]*{(1+[S]/Km)*(Vo/Vi−1)}^−1.
The hLE inhibitory capability of CRP-derived peptides was evaluated by inhibiting the enzymatic cleavage of MeOSuc-AAPV-NA as described in Materials and Methods (section v).

Assay [2] addresses T2, human leukocyte cathepsin G (hCG) (Homo sapiens, UniProt P08311).
T2 construct: Neutrophils (1.4 billion) were isolated from whole blood obtained from a single healthy laboratory donor; from tissue; host or cells: neutrophils from whole blood of a single healthy donor
T2 sequence (P08311 21-243 limits assumed): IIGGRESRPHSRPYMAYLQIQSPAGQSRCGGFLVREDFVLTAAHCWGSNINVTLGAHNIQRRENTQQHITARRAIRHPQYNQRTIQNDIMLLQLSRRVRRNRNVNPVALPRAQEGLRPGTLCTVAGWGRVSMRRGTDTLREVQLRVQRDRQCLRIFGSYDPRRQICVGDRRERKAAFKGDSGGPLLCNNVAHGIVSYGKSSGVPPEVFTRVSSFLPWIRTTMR
The experiment in a line: In vitro inhibition of hCG (cleavage of Suc-AAPF-NA). In kind it is biochemical. On the procedure: as §1
vi) Inhibition experiments with hCG: Similar conditions to hLE inhibition experiments were used except the substrate: 80 μL of 1.80 mM Suc-AAPF-NA. The enzyme was dissolved in 800 μL buffer, and the reaction was monitored every 6 min for 1 hour. The final volume was 240 μL containing: 5% DMSO, 1-100 μM peptide, 600 μM substrate, and 1.2 μg enzyme (about 40 picomol).
For hCG, V is determined by fitting a quadratic equation to the total kinetic data (60 min), using the least squares method and calculating V at t=0.
The hCG inhibitory capability of CRP-derived peptides was evaluated by inhibiting the enzymatic cleavage of Suc-AAPF-NA as described in Materials and Methods (section vi).

The mark [3] stands for this setting: hLE Ki [μM], Table 1, substrate MeOSuc-AAPV-NA 200 μM, pH 7.4, 37 C.
Setting [4] is: hCG Ki [μM], Table 1, substrate Suc-AAPF-NA 600 μM, pH 7.4.
Setting [5] is: hLE Ki [μM], Table 2, substrate MeOSuc-AAPV-NA 200 μM, pH 7.4, 37 C.
The mark [6] stands for this setting: hCG Ki [μM], Table 2, substrate Suc-AAPF-NA 600 μM, pH 7.4.

Entries after “also recorded” stand apart in the source; their conditions may differ. Where a SMILES comes first, the peptide text is derived from it.

On to `CC[C@H](C)[C@H](NC(=O)[C@H](CC(=O)O)NC(=O)[C@H](CCCCN)NC(=O)[C@H](CO)NC(=O)[C@@H](N)Cc1c[nH]c2ccccc12)C(=O)NCC(=O)N[C@@H](Cc1ccc(O)cc1)C(=O)N[C@@H](CO)C(=O)N[C@@H](Cc1ccccc1)C(=O)N[C@H](C(=O)N[C@H](C(=O)NCC(=O)NCC(=O)N[C@@H](CO)C(=O)N[C@@H](CCC(=O)O)C(=O)O)C(C)C)[C@@H](C)O` [Peptide 7, Trp-Ser-Lys-Asp-Ile-Gly-Tyr-Ser-Phe-Thr-Val-Gly-Gly-Ser-Glu] (H-WSKDIGYSFTVGGSE-OH), for which the inhibition constant Ki in assay [1] (setting [3]) and in assay [2] (setting [4]) was above 200 µM each time.

Take `CC[C@H](C)[C@H](NC(=O)[C@H](CCC(=O)O)NC(=O)[C@H](CO)NC(=O)CNC(=O)CNC(=O)[C@@H](NC(=O)[C@@H](NC(=O)[C@H](Cc1ccccc1)NC(=O)[C@H](CO)NC(=O)[C@H](Cc1ccc(O)cc1)NC(=O)CN)[C@@H](C)O)C(C)C)C(=O)N[C@@H](CC(C)C)C(=O)N[C@@H](Cc1ccccc1)C(=O)N[C@@H](CCC(=O)O)C(=O)N[C@H](C(=O)O)C(C)C` [Peptide 8, Gly-Tyr-Ser-Phe-Thr-Val-Gly-Gly-Ser-Glu-Ile-Leu-Phe-Glu-Val] (H-GYSFTVGGSEILFEV-OH): the Ki in assay [1] (setting [3]) and in assay [2] (setting [4]) was above 200 µM throughout.

Regarding `CC[C@H](C)[C@H](NC(=O)[C@H](CCC(=O)O)NC(=O)[C@H](CO)NC(=O)CNC(=O)CNC(=O)[C@@H](N)C(C)C)C(=O)N[C@@H](CC(C)C)C(=O)N[C@@H](Cc1ccccc1)C(=O)N[C@@H](CCC(=O)O)C(=O)N[C@H](C(=O)N1CCC[C@H]1C(=O)N[C@@H](CCC(=O)O)C(=O)N[C@H](C(=O)N[C@H](C(=O)N[C@H](C(=O)O)C(C)C)[C@@H](C)O)C(C)C)C(C)C` [Peptide 9, Val-Gly-Gly-Ser-Glu-Ile-Leu-Phe-Glu-Val-Pro-Glu-Val-Thr-Val] (H-VGGSEILFEVPEVTV-OH), the inhibition constant (Ki) in assay [1] (setting [3]) and in assay [2] (setting [4]) was above 200 µM throughout.

With `CC[C@H](C)[C@H](N)C(=O)N[C@@H](CC(C)C)C(=O)N[C@@H](Cc1ccccc1)C(=O)N[C@@H](CCC(=O)O)C(=O)N[C@H](C(=O)N1CCC[C@H]1C(=O)N[C@@H](CCC(=O)O)C(=O)N[C@H](C(=O)N[C@H](C(=O)N[C@H](C(=O)N[C@@H](C)C(=O)N1CCC[C@H]1C(=O)N[C@H](C(=O)N[C@@H](Cc1c[nH]cn1)C(=O)N[C@H](C(=O)O)[C@@H](C)CC)C(C)C)C(C)C)[C@@H](C)O)C(C)C)C(C)C` [Peptide 10, Ile-Leu-Phe-Glu-Val-Pro-Glu-Val-Thr-Val-Ala-Pro-Val-His-Ile] (H-ILFEVPEVTVAPVHI-OH; N-terminus and C-terminus assumed), in assay [1], the “hLE inhibitory activity (in words)” value was “two orders of magnitude less potent than peptide 6”. The Ki (in general, the equilibrium dissociation constant of an inhibitor or competing ligand from its target) in assay [1] (hLE inhibitory activity range) was 50 to 100 µM; in assay [2] (hCG inhibitory activity range) it was 150 to 200 µM.

`CC[C@H](C)[C@H](N)C(=O)N[C@@H](CC(C)C)C(=O)N[C@H](C(=O)N[C@@H](Cc1ccccc1)C(=O)N[C@@H](Cc1c[nH]c2ccccc12)C(=O)N[C@@H](CO)C(=O)N[C@@H](CCCCN)C(=O)N[C@@H](CC(=O)O)C(=O)N[C@H](C(=O)NCC(=O)N[C@@H](Cc1ccc(O)cc1)C(=O)N[C@@H](CO)C(=O)N[C@@H](Cc1ccccc1)C(=O)N[C@H](C(=O)O)[C@@H](C)O)[C@@H](C)CC)[C@@H](C)CC` [Peptide 11, Ile-Leu-Ile-Phe-Trp-Ser-Lys-Asp-Ile-Gly-Tyr-Ser-Phe-Thr] (H-ILIFWSKDIGYSFT-OH; N-terminus and C-terminus assumed): the “hLE inhibitory activity (in words)” value in assay [1] is “dramatic loss”. The “fold decrease in hLE inhibitory activity compared to peptide 6” value in assay [1] (relative to peptide 6) was “around 20 fold”. The “hCG inhibitory activity (in words)” value in assay [2] was “dramatic loss”.

For `CC[C@H](C)[C@H](N)C(=O)N[C@@H](Cc1ccccc1)C(=O)N[C@@H](Cc1c[nH]c2ccccc12)C(=O)N[C@@H](CO)C(=O)N[C@@H](CCCCN)C(=O)N[C@@H](CC(=O)O)C(=O)N[C@H](C(=O)NCC(=O)N[C@@H](Cc1ccc(O)cc1)C(=O)N[C@@H](CO)C(=O)N[C@@H](Cc1ccccc1)C(=O)N[C@H](C(=O)O)[C@@H](C)O)[C@@H](C)CC` [Peptide 12, Ile-Phe-Trp-Ser-Lys-Asp-Ile-Gly-Tyr-Ser-Phe-Thr] (H-IFWSKDIGYSFT-OH), the “hLE inhibitory activity (in words)” value in assay [1] is recorded as “totally abolished the inhibitory activity”. Also, the Ki in assay [1] (setting [5]) and in assay [2] (setting [6]) was above 200 µM each time.

On to `CC[C@H](C)[C@H](NC(=O)[C@H](CC(=O)O)NC(=O)[C@H](CCCCN)NC(=O)[C@H](CO)NC(=O)[C@H](Cc1c[nH]c2ccccc12)NC(=O)[C@H](Cc1ccccc1)NC(=O)[C@@H](NC(=O)[C@H](CC(C)C)NC(=O)[C@@H](NC(=O)[C@@H](N)CCC(=O)O)[C@@H](C)CC)[C@@H](C)CC)C(=O)NCC(=O)N[C@@H](Cc1ccc(O)cc1)C(=O)O` [Peptide 13, Glu-Ile-Leu-Ile-Phe-Trp-Ser-Lys-Asp-Ile-Gly-Tyr] (H-EILIFWSKDIGY-OH; N-terminus and C-terminus assumed), for which the “hLE inhibitory activity (in words)” value in assay [1] is given as “diminished hLE inhibitory activity”. For the same molecule, in assay [2], the “hCG inhibitory activity (in words)” value is recorded as “diminished inhibitory activity”.

Consider `CC[C@H](C)[C@H](NC(=O)[C@H](CC(=O)O)NC(=O)[C@H](CCCCN)NC(=O)[C@H](CO)NC(=O)[C@H](Cc1c[nH]c2ccccc12)NC(=O)[C@H](Cc1ccccc1)NC(=O)[C@@H](NC(=O)[C@H](CC(C)C)NC(=O)[C@@H](NC(=O)[C@@H](N)CCC(=O)O)[C@@H](C)CC)[C@@H](C)CC)C(=O)O` [Peptide 14, Glu-Ile-Leu-Ile-Phe-Trp-Ser-Lys-Asp-Ile] (H-EILIFWSKDI-OH; N-terminus and C-terminus assumed), for which the “hLE inhibitory activity (in words)” value in assay [1] is recorded as “still retains significant inhibitory activity; also recorded: retain significant inhibitory activity”. Besides, in assay [2], the “hCG inhibitory activity (in words)” value is “retain significant inhibitory activity”.

As to `CC[C@H](C)[C@H](NC(=O)[C@H](CC(C)C)NC(=O)[C@@H](NC(=O)[C@@H](N)CCC(=O)O)[C@@H](C)CC)C(=O)N[C@@H](Cc1ccccc1)C(=O)N[C@@H](Cc1c[nH]c2ccccc12)C(=O)N[C@@H](CO)C(=O)N[C@@H](CCCCN)C(=O)O` [Peptide 15, Glu-Ile-Leu-Ile-Phe-Trp-Ser-Lys] (H-EILIFWSK-OH), in assay [1], the “hLE inhibitory activity (in words)” value is reported as “total loss of inhibitory activity”. Also, the inhibitory constant (Ki) in assay [1] (setting [5]) and in assay [2] (setting [6]) was above 200 µM each time.

As for `CC[C@H](C)[C@H](NC(=O)[C@H](CC(=O)O)NC(=O)[C@H](CCCCN)NC(=O)[C@@H](N)CO)C(=O)NCC(=O)N[C@@H](Cc1ccc(O)cc1)C(=O)N[C@@H](CO)C(=O)O` [Peptide 16, Ser-Lys-Asp-Ile-Gly-Tyr-Ser] (H-SKDIGYS-OH), the “hLE inhibitory activity (in words)” value in assay [1] is “totally inactive”. Besides, the inhibitory constant (Ki) in assay [1] (setting [5]) and in assay [2] (setting [6]) was above 200 µM each time.
